≈ marks a conversion by molar mass, not a printed value. Read-outs that look alike come from different tables or passages of the source. Where a SMILES comes first, the peptide text is derived from it. Where no end group is shown, it is not given here. [ ]: non-standard residue; d: D form.
Assays:
P. aeruginosa = assay: Checkerboard synergy assay (FICI) with antibiotics against P. aeruginosa; type: cell-based, Pseudomonas aeruginosa; conditions: P. aeruginosa ATCC 27853; checkerboard
Protocol: (§1) Any known method to assess MIC may be used.
(§2) Checkerboards are constructed by first preparing columns of e.g., a 96-well polypropylene microtiter plate, wherein each well has the same amount of antibiotic diluted 2-fold along the horizontal axis. […] Bacteria are added to the drug combinations at concentrations of 1×10^5 […] in CAA, for example, with or without human serum or pulmonary surfactant. […] Summation fractional inhibitory concentrations (ΣFICs) are calculated for each drug and the minimum ΣFIC value (ΣFICmin) is used to determine the effect of the Chp peptide/antibiotic combination.
The synergy of GN370 with meropenem was evaluated against 3 different strains of P. aeruginosa and three different strains of B. cenocepacia.
(§3) GN370 was further tested in combination with up to seven additional antibiotics (in addition to meropenem) against a variety of bacterial strains, including P. aeruginosa, A. baumannii, E. coli, E. cloacae, and K. pneumoniae. GN370 and the subject antibiotics were tested in a checkerboard assay format, and FICI values were determined, wherein ≤0.5 indicates synergy, >0.5-≤1 indicates additive; and >1 indicates indifferent.

A. baumannii = assay: Checkerboard synergy assay (FICI) against A. baumannii; type: cell-based, Acinetobacter baumannii; conditions: A. baumannii ATCC BAA-747
Protocol: as §1, §2, §3

E. cloacae = assay: Checkerboard synergy assay (FICI) against E. cloacae; type: cell-based, Enterobacter cloacae; conditions: E. cloacae ATCC 13047
Protocol: as §1, §2, §3

K. pneumoniae = assay: Checkerboard synergy assay (FICI) against K. pneumoniae; type: cell-based, Klebsiella pneumoniae; conditions: K. pneumoniae HM-44
Protocol: as §1, §2, §3

Mycobacterium species = type: cell-based
M. smegmatis = assay: MIC against M. smegmatis; type: cell-based, Mycobacterium smegmatis; conditions: M. smegmatis (MC 155); CAAT media
M. fortuitum = assay: MIC against M. fortuitum; type: cell-based, Mycobacterium fortuitum; conditions: M. fortuitum (ATCC 6841); CAAT media
M. avium = assay: MIC against M. avium; type: cell-based, Mycobacterium avium; conditions: M. avium (ATCC 700898); CAAT media
M. kansasii = assay: MIC against M. kansasii; type: cell-based, Mycobacterium kansasii; conditions: M. kansasi (ATCC 12478); CAAT media
M. scrofulaceum = assay: MIC against M. scrofulaceum; type: cell-based, Mycobacterium scrofulaceum; conditions: M. scrofulaceum (ATCC 19981); CAAT media
M. intracellulare = assay: MIC against M. intracellulare; type: cell-based, Mycobacterium intracellulare; conditions: M. intracellulare (ATCC 13950); CAAT media
M. tuberculosis = type: cell-based, Mycobacterium tuberculosis
M. abscessus = assay: MIC against MDR M. abscessus isolates; type: cell-based, Mycobacterium abscessus; conditions: 7 days; for activity (MIC) against M. abscessus: 5 clinical MDR strains and 1 ATCC strain, CAAT; for MIC: AST media (CAAT)
[1] = 30 amurin peptides, seven species, CAAT media
[2] = M. tuberculosis (ATCC 35817), (ADC, T) media
[3] = M. tuberculosis strain TN8109_LB (MDR), 7H9 broth, 20 days
[4] = M. tuberculosis strain TN8562_M33 (susc), 7H9 broth, 20 days
[5] = M. tuberculosis strain TN10525_LL (MDR), 7H9 broth, 20 days
[6] = M. tuberculosis strain TN10571_KY (MDR), 7H9 broth, 20 days
[7] = M. tuberculosis strain TN12657_KQ15 (IS), 7H9 broth, 20 days
[8] = M. tuberculosis strain TN13923_HD17 (susc), 7H9 broth, 20 days
[9] = M. tuberculosis strain TN18349_W738 (susc), 7H9 broth, 20 days
[10] = M. tuberculosis strain TN34503_001 (susc), 7H9 broth, 20 days
[11] = M. abscessus strain BK51403 (ATCC 19977)

Row | Compound | MIC (M. smegmatis) [µg/mL] | MIC (M. fortuitum) [µg/mL] | MIC (M. avium) [Tg/mL] | MIC (M. kansasii) [µg/mL] | MIC (M. scrofulaceum) [µg/mL] | MIC (M. intracellulare) [µg/mL] | MIC (M. tuberculosis; [2]) [µg/mL] | MIC (M. tuberculosis; [3]) [µg/mL] | MIC (M. tuberculosis; [4]) [µg/mL] | MIC (M. tuberculosis; [5]) [µg/mL] | MIC (M. tuberculosis; [6]) [µg/mL] | MIC (M. tuberculosis; [7]) [µg/mL] | MIC (M. tuberculosis; [8]) [µg/mL] | MIC (M. tuberculosis; [9]) [µg/mL] | MIC (M. tuberculosis; [10]) [µg/mL] | MIC (M. abscessus; M. abscessus strain BK51402) [µg/mL] | MIC (M. abscessus; [11]) [µg/mL] | MIC (M. abscessus; M. abscessus strain BK51408) [µg/mL] | MIC (M. abscessus; M. abscessus strain BK55096) [µg/mL] | MIC (M. abscessus; M. abscessus strain BK55691) [µg/mL] | other results
1 | C[C@H]1[C@H](NC(=O)/C(=N\OC(C)(C)C(=O)O)c2csc(N)n2)C(=O)N1S(=O)(=O)O [Aztreonam] | – | – | – | – | – | – | – | – | – | – | – | – | – | – | – | – | – | – | – | – | FICI of the antibiotic with GN370 (P. aeruginosa): 0.375; FICI of the antibiotic with GN370 (A. baumannii): 0.313; FICI of the antibiotic with GN370 (E. cloacae): 0.25; FICI of the antibiotic with GN370 (K. pneumoniae): 0.375
2 | AM16: Modified variant of Chp4, SEQ ID NO: 91 (MA[dR][dR]Y[dR]LS[dR][dR][dR]S[dR][dR]LFS[dR]TAL[dR]MH[dR][dR]N[dR]L[dR][dR]IM[dR]GGI[dR]F) | 0.25 | 2 | 1 | 1 | 1 | 1 | 8 | 8 | 8 | 16 | 8 | 8 | 8 | 4 | 16 | 1 | 2 | 4 | 1 | 1 | activity (MIC) against Mycobacterium species (Mycobacterium species; [1]): highest activity; activity (MIC) against M. abscessus (M. abscessus): good activity; MIC (M. abscessus; M. abscessus strain BK58156): 2 µg/mL
3 | Chp9: Chp peptide, SEQ ID NO: 9 (MSLRRHKLSRKASKRIFRKGASRTKTLNTRATPMRGGFRI; listed as Chlamydia trachomatis) | 8 | 4 | >64 | 8 | 8 | 4 | 8 | – | – | – | – | – | – | – | – | – | – | – | – | – | –
4 | Ecp3: SEQ ID NO: 55, nonstructural protein (Escherichia) (MARSRRRMSKRSSRRSFRKYAKTHKKNFKARSMRGGIRL; listed as Escherichia sp.) | 8 | 2 | 1 | 2 | 2 | 8 | 8 | – | – | – | – | – | – | – | – | – | – | – | – | – | –
5 | CC[C@H](C)[C@H](NC(=O)CNC(=O)CNC(=O)[C@H](CCCNC(=N)N)NC(=O)[C@H](CCSC)NC(=O)[C@@H](NC(=O)[C@H](CCCNC(=N)N)NC(=O)[C@H](CCCNC(=N)N)NC(=O)[C@H](CC(C)C)NC(=O)[C@H](CCCNC(=N)N)NC(=O)[C@H](CC(N)=O)NC(=O)[C@H](CCCNC(=N)N)NC(=O)[C@@H]1CCCN1C(=O)[C@H](Cc1c[nH]cn1)NC(=O)[C@H](CCSC)NC(=O)[C@H](CCCNC(=N)N)NC(=O)[C@H](CC(C)C)NC(=O)[C@H](C)NC(=O)[C@@H](NC(=O)[C@H](CCCNC(=N)N)NC(=O)[C@H](CO)NC(=O)[C@H](Cc1ccccc1)NC(=O)[C@H](CC(C)C)NC(=O)[C@H](CCCNC(=N)N)NC(=O)[C@H](CCCNC(=N)N)NC(=O)[C@H](CO)NC(=O)[C@H](CCCNC(=N)N)NC(=O)[C@H](CCCNC(=N)N)NC(=O)[C@H](CCCNC(=N)N)NC(=O)[C@@H]1CCCN1C(=O)[C@H](CC(C)C)NC(=O)[C@H](CCCNC(=N)N)NC(=O)[C@H](Cc1ccc(O)cc1)NC(=O)[C@H](CCCNC(=N)N)NC(=O)[C@H](CCCNC(=N)N)NC(=O)[C@H](CCCNC(=N)N)NC(=O)[C@H](C)NC(=O)[C@@H](N)CCSC)[C@@H](C)O)[C@@H](C)CC)C(=O)N[C@@H](CCCNC(=N)N)C(=O)N[C@@H](Cc1ccccc1)C(=O)O [AM18] (H-MARRRYRLPRRRSRRLFSRTALRMHPRNRLRRIMRGGIRF-OH) | 0.25 (≈ 0.0483 µM) | 2 (≈ 0.386 µM) | 2 | 4 (≈ 0.772 µM) | 4 (≈ 0.772 µM) | 1 (≈ 0.193 µM) | 4 (≈ 0.772 µM) | 1 (≈ 0.193 µM) | 2 (≈ 0.386 µM) | 1 (≈ 0.193 µM) | 2 (≈ 0.386 µM) | 1 (≈ 0.193 µM) | 1 (≈ 0.193 µM) | 2 (≈ 0.386 µM) | 0.5 (≈ 0.0965 µM) | 2 (≈ 0.386 µM) | 1 (≈ 0.193 µM) | 4 (≈ 0.772 µM) | 4 (≈ 0.772 µM) | 2 (≈ 0.386 µM) | activity (MIC) against Mycobacterium species (Mycobacterium species): highest activity; MIC (M. abscessus; M. abscessus strain BK58156): 16 µg/mL (≈ 3.09 µM)
6 | Cc1nnc(SCC2=C(C(=O)O)N3C(=O)[C@@H](NC(=O)Cn4cnnn4)[C@H]3SC2)s1 [Cefazolin] | – | – | – | – | – | – | – | – | – | – | – | – | – | – | – | – | – | – | – | – | FICI of the antibiotic with GN370 (A. baumannii): 0.5; FICI of the antibiotic with GN370 (K. pneumoniae): 0.375
7 | AM9: Modified variant of Unp2, SEQ ID NO: 97 (M[dR][dR][dR][dR]LS[dR][dR]TS[dR][dR]FF[dR][dK]GL[dK]V[dR][dR][dR]NL[dR]A[dR]PM[dR]GGF[dR]I) | 1 | 4 | 1 | 2 | 4 | 2 | 4 | 16 | 16 | 64 | 8 | 16 | 16 | 8 | 16 | 1 | 4 | 4 | 2 | 2 | activity (MIC) against Mycobacterium species (Mycobacterium species; [1]): highest activity; activity (MIC) against M. abscessus (M. abscessus): good activity; MIC (M. abscessus; M. abscessus strain BK58156): 2 µg/mL
8 | Spi2: SEQ ID: 26, Spiroplasma virus SpV4 Orf8 (MRRKVKNTKRHQWRLTHSARSIKRANIMPSNPRGGRRF; Spiroplasma virus SpV4) | 4 | 4 | >64 | 1 | 8 | >64 | 16 | – | – | – | – | – | – | – | – | – | – | – | – | – | –
9 | Unp2: SEQ ID NO: 20, unnamed protein product (MRRRRLSRRTSRRFFRKGLKVRRRNLRARPMRGGFRI) | 4 | 2 | 0.5 | 2 | 4 | 1 | 8 | – | – | – | – | – | – | – | – | – | – | – | – | – | –
10 | AVQ206: SEQ ID NO: 60, Gokushovirinae environmental samples (MRRKKMSRGKSKKLFRRTAKRVHRKNLRARPMRGGIRM) | 16 | 2 | 1 | 2 | 4 | 4 | 8 | – | – | – | – | – | – | – | – | – | – | – | – | – | –

From patent US20240181022A1, “AMURINS LYSINS, AND LYSIN-ANTIMICROBIAL PEPTIDE (AMP) CONSTRUCTS ACTIVE AGAINST GRAM-NEGATIVE BACTERIA” (priority 2021, published 2024)
